From patent US9533983B2, “Antiplatelet agent” (Mitsubishi Tanabe Pharma Corporation, priority 2009, dated 2017)
pIC50: −log10 of the molar value.

Columns and labels:
Assay type in all cases: cell-based
Conditions in all cases: Cavia porcellus, guinea pig PRP
[1] = tested on: ADP-Induced Platelet Aggregation; assay: Platelet aggregation inhibitory activity: ADP-induced platelet aggregation in platelet rich plasma
Description: A blood of a guinea pig was sampled by using a 1/10 volume of a 3.8% sodium citrate as a platelet aggregation inhibitor, and a platelet rich plasma (PRP) was separated by centrifuging the blood sample at 1100 rpm for 10 min. After fractionating the PRP in the upper layer, the lower layer was centrifuged at 3000 rpm for 10 min to fractionate the platelet poor plasma (PPP). To 100 μL of PRP, a 1 μL solution of each compound was added, and after still standing at 37° C. for 1 min, the mixture was stirred at 37° C. for 1 min by a stirrer. Then, 11 μL of collagen, ristocetin, or ADP was added thereto to induce the platelet aggregation. The platelet aggregation ability was measured by using the mCM hematolaser 313M (L-M-S Inc.). Based on the assumption that a light transmittance of PPP corresponds to a 100% coagulation value, an aggregation rate at each concentration of the compound was determined, then, an IC50 value was calculated therefrom.
[Platelet Aggregation Inhibitory Activities: ADP-Induced Platelet Aggregation]

[2] = tested on: Ristocetin-Induced Platelet Aggregation; assay: Platelet aggregation inhibitory activity: ristocetin-induced platelet aggregation in platelet rich plasma
Method in brief: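 Guinea pig citrated platelet-rich plasma preincubated with compound at 37 °C for 1 min, stirred 1 min, then aggregation induced with ristocetin. Light transmittance measured with PPP set as 100%. IC50 derived from aggregation rates across compound concentrations.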

[3] = tested on: Collagen-Induced Platelet Aggregation; assay: Platelet aggregation inhibitory activity: collagen-induced platelet aggregation in platelet rich plasma
Method in brief: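 Guinea-pig citrated platelet-rich plasma incubated with compound 1 min at 37° C, stirred 1 min, then aggregation induced with collagen and measured by light transmittance, platelet-poor plasma set as 100%. Aggregation rates at each concentration gave the IC50.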

Row | SMILES | pIC50 [1] | pIC50 [2] | pIC50 [3]
1 | COc1ccc(-n2c(-c3ccn(C)n3)nc3cc(C(F)(F)F)ccc32)nn1 [Example 52, 1-(6-methoxypyridazin-3-yl)-2-(1-methyl-1H-pyrazol-3-yl)-5-(trifluoromethyl)-1H-benzimidazole] | < 5.00 | 7.39 | 7.27
2 | COc1ccc(-n2c(-c3ccc(F)cn3)nc3cc(C(F)(F)F)ccc32)nn1 [Example 62, 2-(5-fluoropyridin-2-yl)-1-(6-methoxypyridazin-3-yl)-5-(trifluoromethyl)-1H-benzimidazole] | < 5.00 | 7.57 | 7.77
3 | COc1ccc(-n2c(-c3ccc(F)cn3)nc3cc(OC(F)(F)F)ccc32)nn1 [Example 71, 2-(5-fluoropyridin-2-yl)-1-(6-methoxypyridazin-3-yl)-5-(trifluoromethoxy)-1H-benzimidazole] | < 5.00 | 7.37 | 7.11
4 | COc1ccc(-n2c(-c3cocn3)nc3cc(C(F)(F)F)ccc32)nn1 [Example 88, 1-(6-methoxypyridazin-3-yl)-2-(1,3-oxazol-4-yl)-5-(trifluoromethyl)-1H-benzimidazole] | < 5.00 | 7.10 | 6.92
5 | COc1ccc(-n2c(-c3ccccn3)nc3cc(OC(F)(F)F)cnc32)cn1 [Example 147, 3-(6-methoxypyridin-3-yl)-2-pyridin-2-yl-6-(trifluoromethoxy)-3H-imidazo[4,5-b]pyridine] | < 5.00 | 7.89 | 7.59
6 | COc1ccc(-n2c(-c3cn(C)nn3)nc3cc(C(F)(F)F)cnc32)cn1 [Example 160, 3-(6-methoxypyridin-3-yl)-2-(1-methyl-1H-1,2,3-triazol-4-yl)-6-(trifluoromethyl)-3H-imidazo[4,5-b]pyridine] | < 5.00 | 6.79 | 6.79
7 | COc1ccc(-n2c(-c3cn(C)nn3)nc3cc(OC(F)(F)F)ccc32)nn1 [Example 167, 1-(6-methoxypyridazin-3-yl)-2-(1-methyl-1H-1,2,3-triazol-4-yl)-5-(trifluoromethoxy)-1H-benzimidazole] | < 5.00 | 6.87 | 6.80
8 | COc1cnc(-n2c(-c3cn(C)cn3)nc3cc(C(F)(F)F)cnc32)cn1 [Example 169, 3-(5-methoxypyrazine-2-yl)-2-(1-methyl-1H-imidazol-4-yl)-6-(trifluoromethyl)-3H-imidazo[4,5-b]pyridine] | < 5.00 | 6.83 | 6.91
9 | COc1ccc(-n2c(-c3ccc(F)cn3)nc3cc(OC(F)(F)F)cnc32)cn1 [Example 177, 2-(5-fluoropyridin-2-yl)-3-(6-methoxypyridin-3-yl)-6-(trifluoromethoxy)-3H-imidazo[4,5-b]pyridine] | < 5.00 | 7.96 | 7.68
10 | COc1ccc(-n2c(-c3ccc(F)cn3)nc3cc(OC(F)F)cnc32)cn1 [Example 178] | < 5.00 | 7.33 | 7.03
11 | COc1ccc(-c2c(-c3ccccn3)nc3cc(C(F)(F)F)cnn23)cn1 [Example 179, 3-(6-methoxypyridin-3-yl)-2-pyridin-2-yl-7-(trifluoromethyl)imidazo[1,2-b]pyridazine] | < 5.00 | 7.47 | 7.12
12 | COc1ccc(-c2c(-c3ccccn3)nn3cc(C(F)(F)F)cnc23)cn1 [Example 180, 3-(6-methoxypyridin-3-yl)-2-pyridin-2-yl-6-(trifluoromethyl)pyrazolo[1,5-a]pyrimidine] | < 5.00 | 7.85 | 7.26
13 | COc1ccc(-c2c(-c3ccc(F)cn3)nc3cc(C(F)(F)F)cnn23)cn1 [Example 181, 2-(5-fluoropyridin-2-yl)-3-(6-methoxypyridin-3-yl)-7-(trifluoromethyl)imidazo[1,2-b]pyridazine] | < 5.00 | 7.57 | 7.48
14 | COc1ccc(-n2c(-c3ccccn3)cc3cc(C(F)(F)F)cnc32)cn1 [Example 183, 1-(6-methoxypyridin-3-yl)-2-pyridin-2-yl-5-(trifluoromethyl)-1H-pyrrolo[2,3-b]pyridine] | < 5.00 | 8.05 | 7.62
15 | COc1ccc(-c2c3ncc(C(F)(F)F)cc3nn2-c2ccccn2)cn1 [Example 186, 3-(6-methoxypyridin-3-yl)-2-pyridin-2-yl-6-(trifluoromethyl)-2H-pyrazolo[4,3-b]pyridine] | < 5.00 | 8.05 | 7.80
16 | COc1ccc(-c2c(-c3ccc(F)cn3)nn3cc(C(F)(F)F)cnc23)cn1 [Example 192, 2-(5-fluoropyridin-2-yl)-3-(6-methoxypyridin-3-yl)-6-(trifluoromethyl)pyrazolo[1,5-a]pyrimidine] | < 5.00 | 7.57 | 7.22
